Assay results: patent US11007206B2, “Cyclic boronic acid ester derivatives and therapeutic uses thereof” (Melinta Subsidiary Corp., priority 2012, dated 2021)
Where two headings read alike, the source gives them in different places.

Legend:
[1] = Plasma pharmacokinetics of Compound I and Biapenem alone or in combination after 1.5 hour intravenous infusion in Sprague-Dawley rats (Example 3); type: in vivo; details: for Plasma pharmacokinetic parameters, alone versus in combination / AUC / clearance / half-life: Sprague-Dawley rats; for Plasma pharmacokinetic parameters, alone versus in combination: single intravenous infusion; for AUC / clearance / half-life: male, Sprague-Dawley, plasma, iv, 20 mg/kg, 1.5 hour intravenous infusion; for AUC / clearance / half-life / Biapenem Calc. Conc. in plasma: rat; for Biapenem Calc. Conc. in plasma: IV infusion
Description: Example 3 provides a summary of the pharmacokinetic studies of Compound I alone or in combination with Biapenem following a single intravenous infusion dose in Sprague-Dawley rats. The pharmacokinetics of 20 mg/kg of Compound I, 20 mg/kg of Biapenem, and 20 mg/kg of Compound I in combination with 20 mg/kg of Biapenem after a 1.5 hour intravenous infusion were discussed.
Biapenem power was purchased from Hisun Pharmaceuticals. Compound I was prepared using the method described in the U.S. Publication 2012/0040932 A1. 20 mg of biapenem was dissolved in 0.1 M NaH2PO4 for a basic stock solution. 100 mg of Compound I was dissolved in 30% 1N NaOH to ˜pH 5.0. For animal studies, these stock solutions were further diluted in 0.9% saline to the appropriate concentration.
The specifications for animals used on this study were as follows: • Species: Rat • Strain: Sprague-Dawley • Gender: Male • Source: Charles River (Hollister, Calif.) • Number of Animals: 3 per study • Body Weight Range: 230-280 g at the start of the study
After acclimation, rats (n=3) were administered single 20 mg/kg intravenous infusion doses of Compound I or Biapenem alone or in combination. Doses were infused over 1.5 hours via an indwelling femoral vein cannula. Plasma (˜0.3 mL) samples were collected from each rat at designated time points up to 24 hours. The time points are shown in section 2.9. Blood samples were centrifuged within 5 min of collection at 12000 g for 5 min to obtain plasma. The plasma samples were stored on −80° C. until analyzed.
Compound I standard curves were prepared in rat plasma from 0.1 to 100 μg/mL. 50 μl aliquots of sample were placed in 1.5 mL microcentrifuge tubes. 20 μl of Compound II (10 μg/mL) was added as internal standard to each sample or standard. 20 μl of 30% trichloroacetic acid was then added to each sample or standard. The samples were mixed using a vortex mixer centrifuged for 10 min at 15,000 RPM using a tabletop centrifuge. The supernatant (approx. 120 μl) was removed and added to 100 μl of water in a 96-well plate. The samples were mixed again using a vortex mixer. 10 μl of each sample was injected onto an HPLC-MS for quantification.
The HPLC-MS conditions for Compound I analysis are as follows: • Column: Phenomenex Fusion-RP or equivalent reversed-phase column, 5 um, 50×2 mm. • Flow rate: 0.6 mL/min. • Mobile phase A: 0.1% formic acid in water. • Mobile phase B: 0.1% formic acid in acetonitrile. • Gradient: 5-60% B in 1.5 min. • Mass spectrometer: Negative ion mode with electrospray ionization. • MS/MS: Compound I-Q1-m/e=296, Q3-m/e=234. • Compound II-Q1-m/e=331, Q3-m/e=201.
Biapenem standard curves were prepared in 50% plasma-50% 1M MOPS buffer, pH=7.4 from 1 to 250 ug/mL. 20 uL of sample or standard was added into a 96-well deep well plate. Then 500 uL of 10% water-45% methanol-45% acetonitrile containing 2 ug/mL of meropenem was used as an internal standard. The plate was vortexed for 15 min. at 3,000 RPM. 50 uL of supernatant was removed and added 300 uL of water. 10 uL of samples were injected onto an HPLC-MS system for quantification.
The HPLC-MS conditions for Biaphenem analysis are as follows: • Column: Supelco Discovery HS F5 or equivalent pentafluorophenyl column, 5 um, 50×2.1 mm. • Flow rate: 0.6 mL/min. • Mobile phase A: 0.1% formic acid in water. • Mobile phase B: 0.1% formic acid in acetonitrile. • Gradient: 5-70% B in 1.9 min. • Mass spectrometer: Positive ion mode with electrospray ionization. • MS/MS: Biapenem-Q1-m/e=350.8, Q3-m/e=110.1. • meropenem-Q1-m/e=384.1, Q3-m/e=141.1
Plasma concentrations were fit using a two compartment IV infusion model (WinNonlinVersion 5.3, Pharsight Corp, Mountain View, Calif.).

P. aeruginosa = test: Potency of Biapenem with or without Compound I against P. aeruginosa (Example 4); type: cell-based
[2] = Single-dose pharmacokinetics of Compound I, intraperitoneal administration to Swiss-Webster mice (Example 5); type: in vivo; details: plasma, Mouse; for CL/F: read-out: CL or CL/F (converted)
Description: (§1) Example 5 provides the single-dose pharmacokinetic studies of Compound I inpreclinical species, including intraperitoneal administration to Swiss-Webster mice and intravaneous administration to Sprague-Dawley rats, Beagle dogs, and Cynomologus monkeys.
(§2) Intravaneous doses of Compound I were administered as 30-minute infusions. The pharmacokinetics of Compound I were also studied with coadministration of the carbapenem, Biapenem. Compound I concentrations were determined using an LC-MS detection method.

[3] = Single-dose pharmacokinetics of Compound I, intravenous 30-minute infusion in Sprague-Dawley rats (Example 5); type: in vivo; details: Rat; for AUC / Cmax / half-life: Sprague-Dawley, in vivo
Description: as §1, §2

[4] = 20 mg/kg Compound I in combination with 20 mg/kg Biapenem

## C[C@@H](O)[C@H]1C(=O)N2C(C(=O)[O-])=C(SC3Cn4cnc[n+]4C3)[C@H](C)[C@H]12 (stereo partly shown) [Biapenem]
[1]
  Plasma pharmacokinetic parameters, alone versus in combination: unchanged
[1]; [4]
  AUC: 10100 ± 1130 ng·h/mL
  clearance: 33.8 mL/min/kg
  half-life: 13.2 ± 0.6 min
[1]; administered alone
  AUC: 8950 ± 890 ng·h/mL
  clearance: 38.2 mL/min/kg
  half-life: 12.6 ± 0.6 min
[1]; sample r.p. # 7.10 (first line), 20 mg/kg Compound I in combination with 20 mg/kg Biapenem
  Biapenem Calc. Conc. in plasma: 0.100 µg/mL
[1]; sample r.p. # 7.10 (second line), 20 mg/kg Compound I in combination with 20 mg/kg Biapenem
  Biapenem Calc. Conc. in plasma: <0 µg/mL
[1]; sample r.p. # 7.1, 20 mg/kg Compound I in combination with 20 mg/kg Biapenem
  Biapenem Calc. Conc. in plasma: 5.61 µg/mL
[1]; sample r.p. # 7.2, 20 mg/kg Compound I in combination with 20 mg/kg Biapenem
  Biapenem Calc. Conc. in plasma: 7.98 µg/mL
[1]; sample r.p. # 7.3, 20 mg/kg Compound I in combination with 20 mg/kg Biapenem
  Biapenem Calc. Conc. in plasma: 5.08 µg/mL
[1]; sample r.p. # 7.4, 20 mg/kg Compound I in combination with 20 mg/kg Biapenem
  Biapenem Calc. Conc. in plasma: 6.47 µg/mL
[1]; sample r.p. # 7.5, 20 mg/kg Compound I in combination with 20 mg/kg Biapenem
  Biapenem Calc. Conc. in plasma: 3.03 µg/mL
[1]; sample r.p. # 7.6, 20 mg/kg Compound I in combination with 20 mg/kg Biapenem
  Biapenem Calc. Conc. in plasma: 1.89 µg/mL
[1]; sample r.p. # 7.7, 20 mg/kg Compound I in combination with 20 mg/kg Biapenem
  Biapenem Calc. Conc. in plasma: 1.22 µg/mL
[1]; sample r.p. # 7.8, 20 mg/kg Compound I in combination with 20 mg/kg Biapenem
  Biapenem Calc. Conc. in plasma: 0.103 µg/mL
[1]; sample r.p. # 7.9, 20 mg/kg Compound I in combination with 20 mg/kg Biapenem
  Biapenem Calc. Conc. in plasma: 0.0321 µg/mL
[1]; sample r.p. # 8.10 (first line), 20 mg/kg Compound I in combination with 20 mg/kg Biapenem
  Biapenem Calc. Conc. in plasma: 0.0587 µg/mL
[1]; sample r.p. # 8.10 (second line), 20 mg/kg Compound I in combination with 20 mg/kg Biapenem
  Biapenem Calc. Conc. in plasma: No Peak
[1]; sample r.p. # 8.1, 20 mg/kg Compound I in combination with 20 mg/kg Biapenem
  Biapenem Calc. Conc. in plasma: 4.40 µg/mL
[1]; sample r.p. # 8.2, 20 mg/kg Compound I in combination with 20 mg/kg Biapenem
  Biapenem Calc. Conc. in plasma: 5.21 µg/mL
[1]; sample r.p. # 8.3, 20 mg/kg Compound I in combination with 20 mg/kg Biapenem
  Biapenem Calc. Conc. in plasma: 7.28 µg/mL
[1]; sample r.p. # 8.4, 20 mg/kg Compound I in combination with 20 mg/kg Biapenem
  Biapenem Calc. Conc. in plasma: 2.71 µg/mL
[1]; sample r.p. # 8.5, 20 mg/kg Compound I in combination with 20 mg/kg Biapenem
  Biapenem Calc. Conc. in plasma: 1.87 µg/mL
[1]; sample r.p. # 8.6, 20 mg/kg Compound I in combination with 20 mg/kg Biapenem
  Biapenem Calc. Conc. in plasma: 1.52 µg/mL
[1]; sample r.p. # 8.7, 20 mg/kg Compound I in combination with 20 mg/kg Biapenem
  Biapenem Calc. Conc. in plasma: 0.828 µg/mL
[1]; sample r.p. # 8.8, 20 mg/kg Compound I in combination with 20 mg/kg Biapenem
  Biapenem Calc. Conc. in plasma: 0.0353 µg/mL
[1]; sample r.p. # 8.9, 20 mg/kg Compound I in combination with 20 mg/kg Biapenem
  Biapenem Calc. Conc. in plasma: 0.0393 µg/mL
[1]; sample r.p. # 9.10 (first line), 20 mg/kg Compound I in combination with 20 mg/kg Biapenem
  Biapenem Calc. Conc. in plasma: 0.196 µg/mL
[1]; sample r.p. # 9.10 (second line), 20 mg/kg Compound I in combination with 20 mg/kg Biapenem
  Biapenem Calc. Conc. in plasma: <0 µg/mL
[1]; sample r.p. # 9.1, 20 mg/kg Compound I in combination with 20 mg/kg Biapenem
  Biapenem Calc. Conc. in plasma: 3.86 µg/mL
[1]; sample r.p. # 9.2, 20 mg/kg Compound I in combination with 20 mg/kg Biapenem
  Biapenem Calc. Conc. in plasma: 7.34 µg/mL
[1]; sample r.p. # 9.3, 20 mg/kg Compound I in combination with 20 mg/kg Biapenem
  Biapenem Calc. Conc. in plasma: 9.20 µg/mL
[1]; sample r.p. # 9.5, 20 mg/kg Compound I in combination with 20 mg/kg Biapenem
  Biapenem Calc. Conc. in plasma: 4.90 µg/mL
[1]; sample r.p. # 9.6, 20 mg/kg Compound I in combination with 20 mg/kg Biapenem
  Biapenem Calc. Conc. in plasma: 2.16 µg/mL
[1]; sample r.p. # 9.7, 20 mg/kg Compound I in combination with 20 mg/kg Biapenem
  Biapenem Calc. Conc. in plasma: 1.69 µg/mL
[1]; sample r.p. # 9.8, 20 mg/kg Compound I in combination with 20 mg/kg Biapenem
  Biapenem Calc. Conc. in plasma: 0.0705 µg/mL
[1]; sample r.p. # 9.9, 20 mg/kg Compound I in combination with 20 mg/kg Biapenem
  Biapenem Calc. Conc. in plasma: 0.00349 µg/mL
P. aeruginosa; Biapenem compared with meropenem
  Potency against P. aeruginosa: potency similar to meropenem

## O=C(O)C[C@@H]1CC[C@H](NC(=O)Cc2cccs2)B(O)O1 [Compound I]
[1]
  Plasma pharmacokinetic parameters, alone versus in combination: unchanged
[1]; [4]
  AUC: 10400 ± 1150 ng·h/mL
  clearance: 32.5 mL/min/kg
  half-life: 23.4 ± 6.6 min
[1]; administered alone
  AUC: 11000 ± 860 ng·h/mL
  clearance: 33 mL/min/kg
  half-life: 43.2 ± 9 min
P. aeruginosa; P. aeruginosa
  Enhancement of Biapenem potency by the addition of Compound I: no enhancement
[2]; 5 mg/kg IP
  AUC: 3100 ng·h/mL
  Cmax: 8260 ng/mL
  half-life: 9.6 min
  CL/F: 26.8 mL/min/kg
[2]; 15 mg/kg IP
  AUC: 8300 ng·h/mL
  Cmax: 19500 ng/mL
  half-life: 12 min
  CL/F: 30 mL/min/kg
[2]; 50 mg/kg IP
  AUC: 31400 ng·h/mL
  Cmax: 67100 ng/mL
  half-life: 15 min
  CL/F: 26.7 mL/min/kg
[3]; 20 mg/kg IV
  CL or CL/F: 28.3 ± 1 mL/min/kg
  AUC: 12200 ± 430 ng·h/mL
  Cmax: 19800 ± 840 ng/mL
  half-life: 96 ± 10.2 min
[3]; 50 mg/kg IV
  AUC: 28200 ± 2000 ng·h/mL
  Cmax: 45900 ± 2000 ng/mL
  half-life: 270 ± 80.4 min
